Tested on: Mycosphaerella graminicola
Test: Cell test on Mycosphaerella graminicola
Assay type: cell-based
Conditions: under similar conditions (6 ppm, liquid medium, OD 620 nm); comparison compounds of the prior art
Procedure: The growth of Mycosphaerella graminicola is performed in a bactopeptone based liquid medium at 20° C. under shaking (120 rpm) during 72 hours. The bactopeptone based medium is prepared by mixing 14.6 grams of D-glucose, 1.4 grams of Yeast extract and 7.1 g of bacteriological peptone (OXOID ref. LP0037) in 1 liter of demineralized water. The medium is sterilized by autoclave 15 minutes at 121° C. After 72 hours, pre-culture of Mycosphaerella graminicola is recovered and the optic density (OD) at 620 nm is adjusted with the bactopeptone based medium at 0.5. The compounds are dissolved in DMSO and added to sterile liquid bactopeptone medium at a concentration of 6 ppm. The medium is inoculated with the pre-culture of Mycosphaerella graminicola by a dilution of 10 times of the pre-culture. The efficacy of the compounds is assessed by OD measurement at 620 nm after 4 days at 20° C. in comparison with a control.

Compound	activity
COc1ccnc(C(=O)NCCC(c2ccccc2)c2ccccc2)c1O [compound 16, N-(3,3-diphenylpropyl)-3-hydroxy-4-methoxypyridine-2-carboxamide]	did not show any activity
COc1ccc(CCCNC(=O)c2c(-c3ccc(Cl)cc3)noc2C)cc1OC [compound 60, 3-(4-chlorophenyl)-N-[3-(3,4-dimethoxyphenyl)propyl]-5-methylisoxazole-4-carboxamide]	did not show any activity

Reference: US8283349B2, “Fungicide N-(3-phenylpropyl) carboxamide derivatives” (Bayer Cropscience AG, priority 2007, dated 2012)
